The values that follow come from paper PMC6344987 (BMC Complementary and Alternative Medicine, 2019).

In one series the test system is CYP3A4. Briefly: P450-Glo CYP3A4 (Luciferin-IPA) activity in primary isolated rat hepatocytes. It counts as in vitro ADME. As to conditions: n = 6; for CYP3A4 activity relative to untreated isolated hepatocytes, in combination with warfarin: combined with warfarin 3 μg/ml, pomegranate peel extract 120, ellagic acid 48, guava leaves extract 294, quercetin 15 μg/ml; for CYP3A4 activity relative to untreated isolated hepatocytes: substance alone, ketoconazole 1, warfarin 3, pomegranate peel extract 120, ellagic acid 48, guava leaves extract 294, quercetin 15 μg/ml. The protocol:
(§1) The liver of anaesthetized rat with inhaled isoflurane were perfused with collagenase enzyme as described by. Liver cells were dispersed gently in a sterile petri dish, and prepared for hepatocyte culture as described elsewhere. Cell were plated at a final concentration of 50,000 cell/100 μl and seeded in 96 well plates (100 μl). Cells were left to recover and grow overnight prior to the day of experiment.
Doses of chemicals selected for in vitro testing on primary cultured hepatocyte mitochondrial activity were estimated after literature review and preliminary work in order to obtain the IC50 values of tested compounds (data not shown). […] Directly after the addition of treatments, 25 μl of the lumenogenic substrate (Luciferin-H, Luciferin-ME or Luciferin-IPA) was added to each well. The plates were incubated at 37 °C for appropriate time according to manufacture protocol (Promega, USA). Later, 25 μl from culture media from each well was transferred into 96-well opaque white luminometer plate and equal amount of Luciferin detection reagent was added to each well to initiate the luminescent reaction. The reaction was allowed for 20 min at room temperature away from light. Finally, luminescence was read using GloMax®-Multi Detection System (Promega, USA).

For the next series, the system named is Sprague Dawley rats. Briefly: In vivo pharmacodynamic study: prothrombin time (PT) and INR in rat plasma after five days of oral treatment. The note with it: oral daily for five days, WF 0.5 mg/kg, PPE 100 mg/kg, EA 40 mg/kg, GvL 250 mg/kg, QUE 12.75 mg/kg, mean ± SD (n = 8); for INR: calculated from PT; for PT: plasma on fifth day. The protocol: Adult Sprague Dawley laboratory rats were supplied by the Animal Facility of the University of […], Jordan). […] Rats were fasted overnight with free access to water. All experiments involving animals were conducted according to the institutional guidelines for the use of laboratory animals, which follows the guidelines of the Federation of European Laboratory Animal Science Associations (FELASA). The used animals were euthanized with cervical dislocation at the end of each experiment. The study protocol was revised and approved by the Committee of Scientific Research of the University of Petra (Approval number: 4-2016/2017, Date: 22/06/2017). The rats were weighed and randomized into ten groups (n = 8) and acclimatized for ten days before the experiment. Oral stainless steel gavage needle (Harvard Apparatus, Kent, UK) was used for oral administration of the treatments. Groups were treated daily for five days as following; group 1 received oral 0.5% CMC solution and served as a negative control. […] Group 3 received 100 mg/kg pomegranate peel extract suspension. […] Group 7 received 250 mg/kg guava leaves extract suspension. […] Plasma was separated, transferred directly into labeled Eppendorf tubes for PT and INR analysis. Reconstituted thromboplastin was added to 100 μl of each plasma sample in pre-warmed cuvette at 37 °C. […] INR was calculated from the detected PT according to the manufacturer's instructions.

A further series has as its system CYP2C8. Description: P450-Glo CYP2C8 (Luciferin-ME) activity in primary isolated rat hepatocytes. The note with it: n = 6; for CYP2C8 activity relative to untreated isolated hepatocytes, in combination with warfarin: combined with warfarin 3 μg/ml, pomegranate peel extract 120, ellagic acid 48, guava leaves extract 294, quercetin 15 μg/ml. It counts as in vitro ADME. The protocol: as §1
(§2) Directly after the addition of treatments, 25 μl of the lumenogenic substrate (Luciferin-H, Luciferin-ME or Luciferin-IPA) was added to each well. The plates were incubated at 37 °C for appropriate time according to manufacture protocol (Promega, USA). Later, 25 μl from culture media from each well was transferred into 96-well opaque white luminometer plate and equal amount of Luciferin detection reagent was added to each well to initiate the luminescent reaction. The reaction was allowed for 20 min at room temperature away from light. Finally, luminescence was read using GloMax®-Multi Detection System (Promega, USA).

In a further series the test system is CYP2C9. Description: P450-Glo CYP2C9 (Luciferin-H) activity in primary isolated rat hepatocytes. The note with it: n = 6; for CYP2C9 activity relative to untreated isolated hepatocytes, in combination with warfarin: combined with warfarin 3 μg/ml, pomegranate peel extract 120, ellagic acid 48, guava leaves extract 294, quercetin 15 μg/ml; for CYP2C9 activity relative to untreated isolated hepatocytes: substance alone, sulfamethoxazole 130, warfarin 3, pomegranate peel extract 120, ellagic acid 48, guava leaves extract 294, quercetin 15 μg/ml. The format is in vitro ADME. The protocol: as §1, §2

Another series in a line: in vivo. As to conditions: rat, po, 0.5 mg/kg. The protocol:
On the fifth day, blood samples were collected from the 18 h fasted rats at different time intervals namely; at zero time, 0.5, 1, 2, 3, 4, 6, 8, 12, 24, 48 and 72 h from all groups and drawn into EDTA micro tubes. The micro tubes were centrifuged at 7000 RPM for 10 min. Plasma was separated, transferred directly into labeled Eppendorf tubes and stored at − 20 °C until requested for HPLC analysis.
Reversed-phase high-performance liquid chromatography (HPLC) analysis was used to separate samples using Finnigan surveyor system (Thermo Electron Corporation, San Jose, California, USA) on a hypersil™ BDS C-18 Column (150 mm × 4.6 mm, 5 μm) (Thermo Electron Corporation, San Jose, California, USA) and quantified using ultraviolet detection at 310 nm (UV-VIS Plus Detector). The mobile phase was a mixture of 60% acetonitrile HPLC grade and 40% water containing 1 ml triethylamine/l and phosphoric acid (pH 3.0) with a flow rate of 1.0 ml/min (LC pump plus) using 20 μl injection volume (Autosampler Plus). Metronidazole benzoate was used as an internal standard. ChromQuest 4.2.34 chromatography data system was implemented for data acquisition and handling. […] Consequently, different concentrations of working solutions were prepared for plasma spiking by mixing 25 μl of working solutions in 975 μl of plasma (Fig. 1, Table 1). […] The supernatant was then analyzed using an in house validated HPLC method at the Faculty of Pharmacy and Medical Sciences, University of Petra, Amman, Jordan (MSc thesis, Farah Al-Mamoori, 2016, University of Petra).
The calculated pharmacokinetic parameters presented in the current study were maximum plasma concentration (Cmax), area under the curve (AUC), area under the first moment curve (AUMC), mean residence time (MRT), half-life (t0.5), clearance (CL), volume of distribution (Vz), time at which Cmax was observed (Tmax) and elimination rate constant (Kel).

Take `O=c1c(O)c(-c2ccc(O)c(O)c2)oc2cc(O)cc(O)c12` [QUE, quercetin hydrate]: in the series on CYP3A4, the “CYP3A4 activity relative to untreated isolated hepatocytes, in combination with warfarin” value was “inhibited” and the “CYP3A4 activity relative to untreated isolated hepatocytes” value is recorded as “inhibited”. Further, in the series with Sprague Dawley rats, the INR is 1.39 ± 0.09 and the PT is 22.5 ± 1.20 s. Also, the “CYP2C8 activity relative to untreated isolated hepatocytes, in combination with warfarin” value in the series with CYP2C8 is recorded as “inhibited”. The “CYP2C8 activity relative to untreated isolated hepatocytes” value in the series with CYP2C8 (substance alone, trimethoprim 30, warfarin 3, pomegranate peel extract 120, ellagic acid 48, guava leaves extract 294, quercetin 15 μg/ml) is listed as “inhibited”. In the series with CYP2C9, the “CYP2C9 activity relative to untreated isolated hepatocytes, in combination with warfarin” value is reported as “inhibited” and the “CYP2C9 activity relative to untreated isolated hepatocytes” value was “inhibited”.

Consider `CC(=O)N1CCN(c2ccc(OCC3COC(Cn4ccnc4)(c4ccc(Cl)cc4Cl)O3)cc2)CC1` (centres unmarked) [ketoconazole, reference compound], for which the “CYP3A4 activity relative to untreated isolated hepatocytes” value in the series on CYP3A4 is “significantly reduced”.

For `O=c1oc2c(O)c(O)cc3c(=O)oc4c(O)c(O)cc1c4c23` [EA, ellagic acid], the “CYP3A4 activity relative to untreated isolated hepatocytes, in combination with warfarin” value in the series with CYP3A4 is given as “significantly inhibited”. In addition, in the series with Sprague Dawley rats, the INR is recorded as 1.43 ± 0.10 and the PT is 23 ± 1.31 s. In addition, the “CYP2C8 activity relative to untreated isolated hepatocytes, in combination with warfarin” value in the series with CYP2C8 was “significantly inhibited”. For the same compound, in the series with CYP2C9, the “CYP2C9 activity relative to untreated isolated hepatocytes, in combination with warfarin” value is recorded as “significantly inhibited” and the “CYP2C9 activity relative to untreated isolated hepatocytes” value was “significant inhibition”.

Broadly, the AUC is concentration integrated over time. Higher therefore signals more exposure. For orientation: Cmax means the highest concentration seen after dosing. The term MRT denotes a mean duration of stay, worked out from the concentration-time curve. The term Tmax denotes the time from dosing to the highest level. The Vd/F is the apparent distribution volume after extravascular dosing. Broadly, the CL/F is the apparent clearance, not corrected for the fraction that reaches the circulation. Take `CC(=O)CC(c1ccccc1)c1c(O)c2ccccc2oc1=O` (centres unmarked) [WF, Warfarin]: in the series “in vivo” (Sprague-Dawley), the AUC stood at 107 µg·h/mL, the Cmax came out at 3670 ± 663 ng/mL, the MRT amounted to 25 ± 5 h and the Tmax was 6 ± 8 h. This compound gave a Vd/F in the series “in vivo” (Sprague-Dawley) of 0.035 ± 0.015 L. In “in vivo”, this compound had a CL/F of 1.45 ± 0.5 mL/h. For the same compound, in the series on Sprague Dawley rats, the INR is 19 ± 1 and the PT amounted to 191 ± 12 s.
